{"source": "patent US6887863B2", "about": "“Hydrazide and alkoxyamide angiogenesis inhibitors” (Abbott Laboratories, priority 2000, dated 2005)", "origin": "cited, not measured here", "target": "type 2-methionine aminopeptidase (MetAP2) (Homo sapiens, UniProt P50579)", "sequence (P50579 whole entry, species assumed)": "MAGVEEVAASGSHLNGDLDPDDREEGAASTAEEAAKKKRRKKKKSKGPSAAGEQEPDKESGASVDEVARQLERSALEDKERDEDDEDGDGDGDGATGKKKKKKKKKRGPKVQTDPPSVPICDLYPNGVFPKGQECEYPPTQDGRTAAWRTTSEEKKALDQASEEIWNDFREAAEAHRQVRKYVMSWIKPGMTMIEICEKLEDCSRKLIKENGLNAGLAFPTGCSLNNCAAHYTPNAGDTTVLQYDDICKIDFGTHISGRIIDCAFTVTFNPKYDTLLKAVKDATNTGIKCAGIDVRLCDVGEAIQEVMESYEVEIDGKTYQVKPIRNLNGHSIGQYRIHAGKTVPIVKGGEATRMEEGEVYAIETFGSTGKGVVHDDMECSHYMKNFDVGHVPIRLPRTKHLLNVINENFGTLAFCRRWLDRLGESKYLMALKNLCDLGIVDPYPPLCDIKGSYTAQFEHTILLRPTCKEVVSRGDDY", "settings": "reported in Proc. Natl. Acad. Sci. USA 94: 6099-6103 (1997) and Chemistry and Biology 4(6): 461-471 (1997)"}
{"smiles": "CO[C@@H]1[C@H](OC(=O)NC(=O)CCl)CC[C@]2(CO2)[C@H]1[C@@]1(C)O[C@@H]1CC=C(C)C", "note": "[AGM-1470]", "values": [{"measurement": "inactivation of MetAP2", "result": "covalently inactivate"}]}
